Experimental data as given in patent US20160115540A1, “PRODRUGS AND DRUGS” (Biogen MA Inc., priority 2013, published 2016).
Counter-ions that a name gives are not always drawn.

Tested on: kidney
Assay: Transcriptional profiling on Affymetrix GeneChips, single dose, naïve mice: kidney
Type: in vivo, C57BL/6 mice
Conditions: for FC: 100DMF-vs-Veh, fold change of the probe set/gene named in the row (Affymetrix, naïve single dose); for Number of differentially expressed genes identified: Kidney: Naïve, Single Dose
Protocol: Treated mice were sacrificed at 2, 7, or 12 hours. Tissues (liver, spleen, kidney, jejunum, cortex, hippocampus, striatum and whole blood) were collected and analyzed by transcriptional profiling on mouse Affymetrix GeneChips.
Tissues (liver, spleen, kidney, jejunum, cortex, hippocampus, striatum and whole blood) were collected and analyzed by transcriptional profiling on mouse Affymetrix GeneChips.
Animals were exposed to CO2 and whole blood collected via cardiac puncture. Two 100 μl aliquots of whole blood were collected in 1.5 mL microcentrifuge tubes and snap frozen in liquid nitrogen. Peripheral (liver, spleen, kidney and jejunum) and CNS brain (cerebellum, hippocampus, striatum and cortex) tissues were harvested and snap frozen in liquid nitrogen, with special care taken to collect tissues of similar size and from the same location. All samples were stored at −80° C. until RNA extraction was conducted.
For RNA preparation, frozen tissues were placed in 2 mL RNAse-free 96-well blocks with 1.5 mL QIAzol Lysis Reagent (QIAgen) and a 3.2 mm stainless steel bead (BioSpec Products, Bartlesville, Okla.). Tissues were disrupted for four cycles of 45 seconds in a Mini-Beadbeater (Biospec Products). RNA was extracted in chloroform and the aqueous phase was mixed with an equal volume of 70% ethanol. Extracted RNA was applied to RNeasy 96 plates and purified by the spin method according to the manufacturer's protocol (RNeasy 96 Universal Tissue Protocol, QIAgen, Hilden Germany).
Automated sample amplifications and biotin labelings were carried out using the NuGEN Ovation RNA Amplification system V2 (Cat #3100), Ovation WB reagent (Cat #1300) and Encore Biotin module (Cat #4200) (NuGEN Technologies, Inc, San Carlos, Calif.) according to manufacturer's recommendations using an Arrayplex automated liquid handler (Beckman Coulter, Indianapolis, Ind.). Two micrograms of biotin labeled sscDNA probe were hybridized to Affymetrix GeneChip Affymetrix HT_MG-430_PM plate arrays with modified conditions as described in Allaire et al. Washing and staining of the hybridized arrays were completed as described in the GeneChip Expression analysis technical manual for HT plate arrays using the Genechip® Array Station (Affymetrix, Santa Clara, Calif.) with modifications as described in Allaire et al. The processed GeneChip® plate arrays were scanned using GeneTitan scanner (Affymetrix, Santa Clara, Calif.).
Affymetrix scans were subject to quality control (QC) measures. These tests included a visual inspection of the distribution of raw signal intensities and an assessment of RNA degradation, relative log expression (RLE), and normalized unsealed standard error (NUSE). All sample scans that passed these QC metrics were included in the analysis.
All CEL files were subjected to GC-content-based Robust Multi-array Average (GCRMA) normalization (version 2.20.0) (Irizarry R A, et al. Nucleic Acids Res 2003; 31:e15; Li C, et al. Genome Biol 2001; 2:[…]0032). Expression levels were log (base 2) transformed.
All calculations and analyses were carried out using R (version 2.11.1) and Bioconductor computational tools (Gentleman R. Springer Science+Business Media 2005).

For `COC(=O)/C=C/C(=O)OC` [DMF, dimethyl fumarate], the “FC Tmem88b 1436974_PM_at” value (100 DMF-vs-Veh, 2 h) was −2.24, the “FC Tnfaip3 1433699_PM_at” value (100 DMF-vs-Veh, 2 h) was −1.83 and the “FC Tnfsf10 1439680_PM_at” value (100 DMF-vs-Veh, 2 h) was −1.52. For the same compound, the “FC Trim7 1439352_PM_at” value (100 DMF-vs-Veh, 2 h) was −1.54, the “FC Txnrd1 1421529_PM_a_at” value (100 DMF-vs-Veh, 2 h) was 1.53 and the “FC Txnrd1 (1424487_PM_x_at)” value (100 DMF-vs-Veh, 2 h) was 1.99. The “FC Ubiad1 1424213_PM_at” value (100 DMF-vs-Veh, 2 h) was −1.61, the “FC Ubxn7 1435912_PM_at” value (100 DMF-vs-Veh, 2 h) was 1.51 and the “FC Vps37b 1424380_PM_at” value (100 DMF-vs-Veh, 2 h) was 1.56. The “FC Zbtb2 1434901_PM_at” value (100 DMF-vs-Veh, 2 h) was 2.52, the “FC Zfp30 1449813_PM_at” value (100 DMF-vs-Veh, 2 h) was −1.55 and the “FC Zfp39 1441198_PM_at” value (100 DMF-vs-Veh, 2 h) was −1.64. The “FC Zfp93 1418955_PM_at” value (100 DMF-vs-Veh, 2 h) was −1.74, the “FC Zfp189 1425287_PM_at” value (100 DMF-vs-Veh, 2 h) was 1.51 and the “FC Zfp295 1425305_PM_at” value (100 DMF-vs-Veh, 2 h) was 2.68. For the same compound, the “FC Zfp295 1441973_PM_at” value (100 DMF-vs-Veh, 2 h) was 2.08, the “FC Zfp759 1452623_PM_at” value (100 DMF-vs-Veh, 2 h) was −1.65 and the “FC Zswim6 1434967_PM_at” value (100 DMF-vs-Veh, 2 h) was 1.63. The FC (7 h) was −1.82, the FC (12 h) was 1.82 and the “FC Adm (1416077_PM_at)” value (KIDNEY, 100 DMF-vs-Veh, 2 h) was 1.56. For the same compound, the “FC Bhlhe40 (1418025_PM_at)” value (KIDNEY, 100 DMF-vs-Veh, 2 h) was 1.59, the “FC Cyr61 (1416039_PM_x_at)” value (KIDNEY, 100 DMF-vs-Veh, 2 h) was 2.43 and the “FC Dbf4 (1418334_PM_at)” value (KIDNEY, 100 DMF-vs-Veh, 2 h) was 2.08. For the same compound, the “FC Ddit3 (1417516_PM_at)” value (KIDNEY, 100 DMF-vs-Veh, 2 h) was 3.97, the “FC Dnaja1 (1416288_PM_at)” value (KIDNEY, 100 DMF-vs-Veh, 2 h) was 1.69 and the “FC Dnaja4 (1418591_PM_at)” value (KIDNEY, 100 DMF-vs-Veh, 2 h) was 2.05. For the same compound, the “FC Dnaja4 (1418592_PM_at)” value (KIDNEY, 100 DMF-vs-Veh, 2 h) was 1.87, the “FC Dnajb1 (1416755_PM_at)” value (KIDNEY, 100 DMF-vs-Veh, 2 h) was 3.03 and the “FC Dnajb1 (1416756_PM_at)” value (KIDNEY, 100 DMF-vs-Veh, 2 h) was 4.36. For the same compound, the “FC Dusp6 (1415834_PM_at)” value (KIDNEY, 100 DMF-vs-Veh, 2 h) was 1.52, the “FC Dusp16 (1418401_PM_a_at)” value (KIDNEY, 100 DMF-vs-Veh, 2 h) was 1.50 and the “FC Egr1 (1417065_PM_at)” value (KIDNEY, 100 DMF-vs-Veh, 2 h) was 4.60. For the same compound, the “FC Gclm 1418627_PM_at” value (KIDNEY, 100 DMF-vs-Veh, 2 h) was 1.51, the “FC Hbegf (1418349_PM_at)” value (KIDNEY, 100 DMF-vs-Veh, 2 h) was 2.03 and the “FC Hbegf (1418350_PM_at)” value (KIDNEY, 100 DMF-vs-Veh, 2 h) was 2.21. For the same compound, the “FC Ier2 (1416442_PM_at)” value (KIDNEY, 100 DMF-vs-Veh, 2 h) was 1.75, the “FC Ifrd1 (1416067_PM_at)” value (KIDNEY, 100 DMF-vs-Veh, 2 h) was 1.52 and the “FC Igfbp1 (1418918_PM_at)” value (KIDNEY, 100 DMF-vs-Veh, 2 h) was −2.89. The “FC Nab2 (1417930_PM_at)” value (KIDNEY, 100 DMF-vs-Veh, 2 h) was 2.74, the “FC Nasp (1416042_PM_s_at)” value (KIDNEY, 100 DMF-vs-Veh, 2 h) was 1.62 and the “FC Nfil3 (1418932_PM_at)” value (KIDNEY, 100 DMF-vs-Veh, 2 h) was 2.29. For the same compound, the “FC Pmaip1 (1418203_PM_at)” value (KIDNEY, 100 DMF-vs-Veh, 2 h) was 1.68, the “FC Ppp2r3c (1417479_PM_at)” value (KIDNEY, 100 DMF-vs-Veh, 2 h) was 1.59 and the “FC Rcan1 (1416600_PM_a_at)” value (KIDNEY, 100 DMF-vs-Veh, 2 h) was 1.51. The “FC Sertad1 (1417406_PM_at)” value (KIDNEY, 100 DMF-vs-Veh, 2 h) was 2.06, the “FC Sirt1 (1418640_PM_at)” value (KIDNEY, 100 DMF-vs-Veh, 2 h) was 1.68 and the “FC Slc22a4 (1417639_PM_at)” value (KIDNEY, 100 DMF-vs-Veh, 2 h) was −1.51. The “FC Tnfrsf12a 1418571_PM_at” value (KIDNEY, 100 DMF-vs-Veh, 2 h) was 2.37, the “FC Tnfrsf12a 1418572_PM_x_at” value (KIDNEY, 100 DMF-vs-Veh, 2 h) was 2.33 and the “FC Tnnc1 (1418370_PM_at)” value (KIDNEY, 100 DMF-vs-Veh, 2 h) was 1.89. The “FC Txnip (1415997_PM_at)” value (KIDNEY, 100 DMF-vs-Veh, 2 h) was −1.73, the “FC Zfand2a (1415940_PM_at)” value (KIDNEY, 100 DMF-vs-Veh, 2 h) was 1.55 and the “FC Zfand5 (1416084_PM_at)” value (KIDNEY, 100 DMF-vs-Veh, 2 h) was 1.63. The “FC Zfand5 (1416085_PM_s_at)” value (KIDNEY, 100 DMF-vs-Veh, 2 h) was 1.68, the “Number of genes, DMF Only / MMF Only” value (Kidney) was 61 and the “Asns (1451095_PM_at) differential expression” value (Kidney, 2 hr) was 3.03. The “Cbr3 (1427912_PM_at) differential expression” value (Kidney, 2 hr) was 3.04, the “Gdf15 (1418949_PM_at) differential expression” value (Kidney, 2 hr) was 5.39 and the “Mthfd2 (1419253_PM_at) differential expression” value (Kidney, 2 hr) was 2.06. For the same compound, the “Number of differentially expressed genes identified: Kidney” value (“Number of differentially” below) (100 mpk DMF-vs-100 mpk MMF, 2 h after last dosing) was 1, the “Number of differentially” value (100 mpk DMF-vs-100 mpk MMF, 7 h after last dosing) was 1 and the “Number of differentially” value (100 mpk DMF-vs-100 mpk MMF, 12 h after last dosing) was 2. For the same compound, the “Number of differentially” value (100 mpk, vs Vehicle, 2 h after last dosing) was 331, the “Number of differentially” value (100 mpk, vs Vehicle, 7 h after last dosing) was 93 and the “Number of differentially” value (100 mpk, vs Vehicle, 12 h after last dosing) was 100. The “Asns (1451095_PM_at) differential expression” value (kidney, 7 hr) was 1.92, the “Cbr3 (1427912_PM_at) differential expression” value (kidney, 7 hr) was 5.88 and the “Gdf15 (1418949_PM_at) differential expression” value (kidney, 7 hr) was 1.75. For the same compound, the “Mthfd2 (1419253_PM_at) differential expression” value (kidney, 7 hr) was 1.65, the “Asns (1451095_PM_at) differential expression” value (kidney, 12 hr) was 2.65 and the “Cbr3 (1427912_PM_at) differential expression” value (kidney, 12 hr) was 5.67. The “Gdf15 (1418949_PM_at) differential expression” value (kidney, 12 hr) was 1.77, the “Mthfd2 (1419253_PM_at) differential expression” value (kidney, 12 hr) was 1.60 and the “FC 1439640_PM_at (no gene symbol)” value (kidney, 100DMF-vs-100MMF, 2 h) was 1.54. For the same compound, the “FC Nr1d1 (1426464_PM_at)” value (kidney, 100DMF-vs-100MMF, 7 h) was 1.56, the “FC 1441333_PM_at (no gene symbol)” value (kidney, 100DMF-vs-100MMF, 12 h) was 1.91 and the “FC C76628 (1420187_PM_at)” value (kidney, 100DMF-vs-100MMF, 12 h) was 1.59.
